Laboratory results: patent publication US8288385B2, “6-(3-aza-bicyclo[3.1.0]hex-3-yl)-2-phenyl-pyrimidines” (Actelion Pharmaceuticals Ltd., priority 2009, dated 2012)

Each compound was assayed against T1, human P2Y12 receptor (Homo sapiens, UniProt Q9H244) (assay: P2Y12 receptor binding assay). Conditions: CHO cells with recombinant expression of the human P2Y12 receptor; tritium-labeled 2-methyl-S-ADP; RT, 2 hours.
T1 construct: expressed in transfected cells; host or cells: Chinese Hamster Ovary (CHO) cells
T1 sequence (Q9H244 whole entry): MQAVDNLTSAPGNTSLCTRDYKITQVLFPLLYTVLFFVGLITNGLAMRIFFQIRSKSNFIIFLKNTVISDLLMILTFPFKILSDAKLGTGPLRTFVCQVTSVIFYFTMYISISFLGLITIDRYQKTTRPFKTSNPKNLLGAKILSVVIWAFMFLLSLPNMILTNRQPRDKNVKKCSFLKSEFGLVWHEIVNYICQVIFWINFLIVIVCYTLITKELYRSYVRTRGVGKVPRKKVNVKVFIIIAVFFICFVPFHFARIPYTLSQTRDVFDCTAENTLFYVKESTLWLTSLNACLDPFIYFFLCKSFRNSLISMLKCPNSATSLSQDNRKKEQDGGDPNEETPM
Description: P2Y12 Receptor Binding Assay
Chinese Hamster Ovary (CHO) cells with recombinant expression of the human P2Y12 receptor were cultured in 24 well cell-culture plates. Cells were washed three times with binding buffer (50 mM Tris pH 7.4, 100 mM NaCl, 1 mM EDTA, 0.5% BSA). The cells were then incubated with 0.5 ml per well binding buffer containing tritium-labeled 2-methyl-thio-adenosine 5′-diphosphate (2-methyl-S-ADP) (between 100,000 and 300,000 dpm per well) and various concentrations of test compounds. After incubation at RT for 2 hours, cells were washed three times with binding buffer. Then, cells were solubilized by addition of 0.5 ml solubilization buffer (SDS, NaOH, EDTA). The content of each well was then transferred into beta-counter vials and 2.0 ml of Ultima Gold Scintillation liquid was added.

**Q.** With `CCCCOC(=O)N1CCN(C(=O)[C@H](Cc2ccccc2)NC(=O)c2cc(N3CC4C(C3)C4C(=O)O)nc(-c3ccccc3)n2)CC1` (stereo partly drawn) [Example 46, (1α,5α,6α)-3-{6-[(S)-1-Benzyl-2-(4-butoxycarbonyl-piperazin-1-yl)-2-oxo-ethylcarbamoyl]-2-phenyl-pyrimidin-4-yl}-3-aza-bicyclo[3.1.0]hexane-6-carboxylic acid] as the compound, how does the IC50 read?
**A.** The IC50 was 961 nM.

**Q.** How did the IC50 turn out when `CCCCOC(=O)N1CCN(C(=O)[C@@H](NC(=O)c2cc(N3C[C@@H]4[C@H](C3)[C@@H]4C(=O)O)nc(-c3ccccc3F)n2)C(C)C)CC1` [Example 47, (1α,5α,6β)-3-[6-[(S)-1-(4-Butoxycarbonyl-piperazine-1-carbonyl)-2-methyl-propylcarbamoyl]-2-(2-fluoro-phenyl)-pyrimidin-4-yl]-3-aza-bicyclo[3.1.0]hexane-6-carboxylic acid] was run?
**A.** The IC50 was 12 nM.

**Q.** `CCCCOC(=O)N1CCN(C(=O)[C@H](CC#N)NC(=O)c2cc(N3C[C@@H]4[C@H](C3)[C@@H]4C(=O)O)nc(-c3ccccc3)n2)CC1` [Example 48, (1α,5α,6β)-3-{6-[(S)-1-(4-Butoxycarbonyl-piperazine-1-carbonyl)-2-cyano-ethylcarbamoyl]-2-phenyl-pyrimidin-4-yl}-3-aza-bicyclo[3.1.0]hexane-6-carboxylic acid] was tested. Which IC50 did it give?
**A.** Its IC50 is 74 nM.

**Q.** For `CCCCOC(=O)N1CCN(C(=O)[C@H](CCc2nnn[nH]2)NC(=O)c2cc(N3C[C@@H]4[C@H](C3)[C@@H]4C(=O)O)nc(-c3ccccc3)n2)CC1` [Example 49, (1α,5α,6β)-3-{6-[(S)-1-(4-Butoxycarbonyl-piperazine-1-carbonyl)-3-(1H-tetrazol-5-yl)-propylcarbamoyl]-2-phenyl-pyrimidin-4-yl}-3-aza-bicyclo[3.1.0]hexane-6-carboxylic acid], which IC50 is on record?
**A.** Its IC50 is under 3.2 nM.

**Q.** Which IC50 does the source give for `CCCCOC(=O)N1CCN(C(=O)[C@H](CP(=O)(OCC)OCC)NC(=O)c2cc(N3C[C@@H]4[C@H](C3)[C@H]4C(=O)OCC)nc(-c3ccccc3)n2)CC1` [Example 50, (1α,5α,6α)-3-{6-[(R)-2-(4-Butoxycarbonyl-piperazin-1-yl)-1-(diethoxy-phosphorylmethyl)-2-oxo-ethylcarbamoyl]-2-phenyl-pyrimidin-4-yl}-3-aza-bicyclo[3.1.0]hexane-6-carboxylic acid ethyl ester] here?
**A.** Its IC50 is 383 nM.

**Q.** With `CCCCOC(=O)N1CCN(C(=O)[C@H](CP(=O)(O)O)NC(=O)c2cc(N3C[C@@H]4[C@H](C3)[C@H]4C(=O)OCC)nc(-c3ccccc3)n2)CC1` [Example 51, (1α,5α,6α)-3-{6-[(R)-2-(4-Butoxycarbonyl-piperazin-1-yl)-2-oxo-1-phosphonomethyl-ethylcarbamoyl]-2-phenyl-pyrimidin-4-yl}-3-aza-bicyclo[3.1.0]hexane-6-carboxylic acid ethyl ester] as the compound, how does the IC50 read?
**A.** Its IC50 is 2.5 nM.

**Q.** `CCCCOC(=O)N1CCN(C(=O)[C@H](CP(=O)(OCOC(C)=O)OCOC(C)=O)NC(=O)c2cc(N3C[C@@H]4[C@H](C3)[C@H]4C(=O)OCC)nc(-c3ccccc3)n2)CC1` [Example 52, (1α,5α,6α)-3-{6-[(R)-1-(Bis-acetoxymethoxy-phosphorylmethyl)-2-(4-butoxycarbonyl-piperazin-1-yl)-2-oxo-ethylcarbamoyl]-2-phenyl-pyrimidin-4-yl}-3-aza-bicyclo[3.1.0]hexane-6-carboxylic acid ethyl ester] was tested. Which IC50 did it give?
**A.** The IC50 was 4 nM.

**Q.** With `CCCCOC(=O)N1CCN(C(=O)[C@H](CP(=O)(N[C@@H](C)C(=O)OCC)N[C@@H](C)C(=O)OCC)NC(=O)c2cc(N3C[C@@H]4[C@H](C3)[C@H]4C(=O)OCC)nc(-c3ccccc3)n2)CC1` [Example 53, N,N′-Bis-((S)-1-Ethoxycarbonylethyl)-(R)-2-[(4-[(1α,5α,6α)-6-ethoxycarbonyl-3-aza-bicyclo[3.1.0]hex-3-yl]-2-phenyl-pyrimidin-6-carbonyl)-amino]-3-oxo-3-(4-butoxy-carbonyl-piperazin-1-yl)-propyl-phosphonic acid diamide] as the compound, how does the IC50 read?
**A.** Its IC50 is 110 nM.

**Q.** How did the IC50 turn out when `CCCCOC(=O)N1CCN(C(=O)[C@H](CP(=O)(OCOC(=O)OCC)OCOC(=O)OCC)NC(=O)c2cc(N3C[C@@H]4[C@H](C3)[C@H]4C(=O)OCC)nc(-c3ccccc3)n2)CC1` [Example 54, (1α,5α,6α)-3-{6-[(R)-1-(Bis-ethoxycarbonyloxymethoxy-phosphorylmethyl)-2-(4-butoxycarbonyl-piperazin-1-yl)-2-oxo-ethylcarbamoyl]-2-phenyl-pyrimidin-4-yl}-3-aza-bicyclo[3.1.0]hexane-6-carboxylic acid ethyl ester] was run?
**A.** The IC50 was 15 nM.
